Measurements published in US9803164B2, “Megakaryocyte and platelet production from stem cells” (priority 2011, dated 2017).
Residues, ends and D or L forms follow the SMILES beside them. *: point of attachment. Cbz = O=C(OCc1ccccc1)*; CH2F = FC*

Legend:
Assay type in all cases: cell-based
[1] = system: platelets collected from the bioreactor; test: Platelet surface expression of P-selectin after activation, flow cytometry; conditions: PMA 10 μg/mL, 15 min, room temperature; 25% at baseline
Experimental: Platelets collected from the bioreactor were tested for their function based on the externalization of P-Selectin after activation with phorbol myristate acetate (PMA) using flow cytometry. Platelets were collected in eppendorf tubes, labeled with Alexa 647-conjugated anti-CD41 antibody, PE-conjugated anti-CD-62P (Becton Dickinson) and a live cell stain, Calcein AM (Sigma-Aldrich) for 15 min at room temperature. Next, platelets were activated using PMA (Sigma Aldrich) 10 μg/mL for 15 min at room temperature. Cells were then analyzed by flow cytometry for P-Selectin externalization. Anti-Y1-PE (Becton Dickinson) was used as an isotype control.

UCB derived CD34 cells = test: Expansion of UCB derived CD34 enriched cells in serum-free suspension culture with reagents; conditions: control mean 40-fold, n=3; for CD34 fold expansion (mean): day 7 of culture, SR-1 0.75 μM, TEPA 5 μM, zVADfmk 100 nM, SCF, TPO, FLT3-ligand 50 ng/ml
Experimental: Umbilical cord blood units not suitable for clinical use were obtained from the New York Blood Center National Cord Blood Bank, where they were collected after informed consent in accord with the Declaration of Helsinki. Isolation of umbilical cord blood CD34 cells was performed using either a positive selection or a negative selection method. The positive selection method used has been described in G. Mattia et al., Different ploidy levels of megakaryocytes generated from peripheral or cord blood CD34+ cells are correlated with different levels of platelet release, 99(3) BLOOD 888 (February 2002). Briefly, mononuclear cells were layered on a Ficoll-Hypaque gradient (GE Healthcare, Barrington, Ill.), washed twice with phosphate-buffered saline (PBS) (Life Technologies) supplemented with 5% fetal bovine serum (FBS) (Life Technologies). To purify CD34 cells, the mononuclear selection fraction was subject to two cycles of immunomagnetic bead separation using a MINIMACS CD34 isolation kit (Miltenyi Biotech, Auburn, Calif.), according to manufacturer's recommendations. The purity of the sample ranged from 70% to 90% CD34 positive and was approximately 30% CD41 positive based on flow cytometry analysis.
The negative selection method was based on previously described methods where umbilical cord blood-derived CD34 cells were enriched by a negative selection method with the use of ROSETTESEP (Stem Cell Technologies, Vancouver, Canada). M. P. Avanzi et al., Optimizing megakaryocyte polyploidization by targeting multiple pathways of cytokinesis, 52(11) TRANSFUSION 2406 (November 2012). Briefly, cells were washed with phosphate buffered saline (PBS, Life Technologies) and incubated with ROSETTESEP reagent for 10 min at room temperature. Next, cells were layered on a Ficoll-Hypaque gradient, washed twice with phosphate-buffered saline. The final product was approximately 20% to 30% CD34 positive and 30% CD41 positive.
UCB derived CD34 enriched cells were plated at a density of 1×10^4 per well (24 well plate) in suspension culture and combined with one of the following reagents: STEM REGENIN-1 (StemCell Technologies, Vancouver, BC), 0.75 μM; copper chelator tetraethylenepentamine, 5 μM (TEPA) (Sigma Aldrich, St Louis, Mo.); or zVADfmk, 100 nM (Abcam, Cambridge, Mass.). Reagents were added with culture medium and cytokine cocktail on day 0, 4, 7 and 10 of culture. Additionally, in separate experiments, CD34 enriched cells were expanded on NANEX nanofiber membranes (Arteriocyte, Cleveland Ohio). […]
All flow cytometry experiments where performed with a BD FACS LSR FORTESSA machine (Becton Dickinson, San Jose, Calif.) and analyzed with BD FACSDIVA software (Becton Dickinson). […] Labeled cells were then analyzed and counted.

[2] = system: megakaryocytes (CD41 cells); test: Megakaryocyte ploidy by flow cytometry after induction of polyploidization; conditions: day 11; treated once on day 8; latrunculin 10 μg/ml or Y27632 10 μM; controls less than 10%; p=0.007, n=3
Experimental: (§1) At the completion of the megakaryocyte differentiation stage on day 8, megakaryocytes were stimulated to undergo polyploidization by adding either the actin polymerization inhibitor, latrunculin (Santa Cruz Biotechnologies, Dallas, Tex.), at a final concentration of 10 μg/ml, or the Rho-kinase inhibitor, Y27632 (Sigma Aldrich, St. Louis, Mo.), at 10 μM, and then culturing the cells for an additional 3 or 4 days.
Megakaryocyte ploidy was analyzed on day 11 of culture. Cells were labeled with Alexa 647-conjugated anti-CD41 antibody, incubated for 20 min on ice, fixed with 4% paraformaldehyde (Fisher Scientific) for 15 minutes and then washed with PBS. Next, cells were permeabilized with methanol 75% (Sigma Aldrich) for 1 hour at 4° C. and washed with PBS+BSA, 2%+NP40, 0.05% (Fischer Scientific) solution. Finally cells were treated with Propidium Iodide/RNase solution (Becton Dickinson) and incubated for 30 minutes in the dark at room temperature before flow cytometry analysis.

megakaryocytes = test: Proplatelet formation quantification (grid strategy); conditions: day 11; treated on day 8; p=0.02, n=3
Experimental: as §1
Proplatelet formation was quantified on day 11 of culture using a grid strategy, as previously described by M. P. Avanzi et al., Rho kinase inhibition drives megakaryocyte polyploidization and proplatelet formation through MYC and NFE2 downregulation, 164(6) BR. J HAEMATOL. 867 (March 2014). Briefly, using an inverted light microscope (Olympus CKX41) 10 random-field images were acquired at 40× magnification from each well. All megakaryocytes present on each field were counted. A counting grid with 25 μm squares was used to enumerate the number of proplatelet processes. Each proplatelet segment inside each square was counted and the sum of all segments in 10 random field images (40× magnification) was used for comparison. From these numbers, a measure of proplatelet density per cell per unit area was generated and used to compare the results of different culture conditions.

Compound	CD34 fold expansion (mean) (UCB derived CD34 cells)	Proportion of megakaryocytes with ploidy >8 [2]	Proplatelets generated compared with control megakaryocytes (megakaryocytes)	other results
CCCCCCCCCCCCCC(=O)O[C@@H]1[C@@H](C)[C@@]2(O)[C@@H](C=C(CO)C[C@]3(O)C(=O)C(C)=C[C@@H]23)[C@@H]2C(C)(C)[C@]12OC(C)=O [PMA, phorbol 12-myristate 13-acetate]	–	–	–	Particles expressing p-selectin after stimulation [1]: 65%
CC(C)n1cnc2c(NCCc3ccc(O)cc3)nc(-c3csc4ccccc34)nc21 [SR-1, stem regenin-1]	85 fold	–	–	CD34 fold expansion versus control culture (significance) (UCB derived CD34 cells; day 7): not significantly different
NCCNCCNCCNCCN [TEPA, tetraethylenepentamine]	19 fold	–	–	–
C[C@@H](N)[C@H]1CC[C@H](C(=O)Nc2ccncc2)CC1 [Y27632]	–	30%	significantly more	–
COC(=O)CC(NC(=O)C(C)NC(=O)C(NC(=O)OCc1ccccc1)C(C)C)C(=O)CF (stereo not drawn) [zVADfmk, benzyloxycarbonyl-Val-Ala-Asp (OMe) fluoromethylketone] (Cbz-Val-Ala-Asp(OMe)-CH2F; configuration not given here)	25 fold	–	–	–
latrunculin	–	30%	significantly more	–
